Experimental data published in PubChem BioAssay AID2060493 (Molecular Pharmacology Branch, DTP, NCI, 2025).
Each block holds one compound with its values, some of them ahead of it.

Tested on: 616215-338-R-J1-PDC tumor spheroids, viability
Experiment: Anticancer human tumor 616215-338-R-J1-PDC patient-derived colon adenocarcinoma cell line growth inhibition [GQUAD]
Settings: spheroids with HUVEC and MSC; for IC50: curve of first compound; for viability, T/C: stronger effect = lower value
How it was run: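 Multi-cell-type spheroids of tumor cells with HUVEC and mesenchymal stem cells, treated with drug combinations. Concentrations descend in half-log steps from near clinical Cmax, or from 10 microM where Cmax is unknown; viability read-out.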

[1] = second compound 0.0316 µM, first compound 0.0316 µM
[2] = second compound 0.0316 µM, first compound 0.1 µM
[3] = second compound 0.0316 µM, first compound 0.316 µM
[4] = second compound 0.0316 µM, first compound 1 µM
[5] = second compound 0.0316 µM, first compound 3.16 µM
[6] = second compound 0.0316 µM, first compound 10 µM
[7] = second compound 0.1 µM, first compound 0.0316 µM
[8] = second compound 0.1 µM, first compound 0.1 µM
[9] = second compound 0.1 µM, first compound 0.316 µM
[10] = second compound 0.1 µM, first compound 1 µM
[11] = second compound 0.1 µM, first compound 3.16 µM
[12] = second compound 0.1 µM, first compound 10 µM
[13] = second compound 0.316 µM, first compound 0.0316 µM
[14] = second compound 0.316 µM, first compound 0.1 µM
[15] = second compound 0.316 µM, first compound 0.316 µM
[16] = second compound 0.316 µM, first compound 1 µM
[17] = second compound 0.316 µM, first compound 3.16 µM
[18] = second compound 0.316 µM, first compound 10 µM
[19] = second compound 1 µM, first compound 0.0316 µM
[20] = second compound 1 µM, first compound 0.1 µM
[21] = second compound 1 µM, first compound 0.316 µM
[22] = second compound 1 µM, first compound 1 µM
[23] = second compound 1 µM, first compound 3.16 µM
[24] = second compound 1 µM, first compound 10 µM
[25] = second compound 3.16 µM, first compound 0.0316 µM
[26] = second compound 3.16 µM, first compound 0.1 µM
[27] = second compound 3.16 µM, first compound 0.316 µM
[28] = second compound 3.16 µM, first compound 1 µM
[29] = second compound 3.16 µM, first compound 3.16 µM
[30] = second compound 3.16 µM, first compound 10 µM
[31] = second compound 10 µM, first compound 0.0316 µM
[32] = second compound 10 µM, first compound 0.1 µM
[33] = second compound 10 µM, first compound 0.316 µM
[34] = second compound 10 µM, first compound 1 µM
[35] = second compound 10 µM, first compound 3.16 µM
[36] = second compound 10 µM, first compound 10 µM
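Note: spheroids exposed to agents for 7 days before readout.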
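Throughout, for viability, T/C: percent viability relative to DMSO vehicle control wells taken as 100%.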

IC50 (second compound 0.0316 µM): 5420 nM
IC50 (second compound 0.1 µM): 31.6 nM
IC50 (second compound 0.316 µM): < 31.6 nM
IC50 (second compound 1 µM): < 31.6 nM
IC50 (second compound 3.16 µM): < 31.6 nM
IC50 (second compound 10 µM): < 31.6 nM
SMILES: CC(C)n1c(=O)n(C)c2cnc3cc(F)c(-c4ccc(OCCCN5CCCCC5)nc4)cc3c21 + Cc1cnc(CNC(=O)c2c(=O)c3ccc(N4CCCN(C)CC4)nc3n3c2sc2ccccc23)cn1
viability, T/C [1]: 82%
viability, T/C [2]: 62%
viability, T/C [3]: 47.6%
viability, T/C [4]: 69.5%
viability, T/C [5]: 64%
viability, T/C [6]: 33.9%
viability, T/C [7]: 48.3%
viability, T/C [8]: 48.5%
viability, T/C [9]: 52.2%
viability, T/C [10]: 34%
viability, T/C [11]: 36.9%
viability, T/C [12]: 28.8%
viability, T/C [13]: 40.6%
viability, T/C [14]: 43.3%
viability, T/C [15]: 53.8%
viability, T/C [16]: 38.5%
viability, T/C [17]: 46.8%
viability, T/C [18]: 13.4%
viability, T/C [19]: 28.3%
viability, T/C [20]: 36.1%
viability, T/C [21]: 29.9%
viability, T/C [22]: 28.2%
viability, T/C [23]: 34.3%
viability, T/C [24]: 30.5%
viability, T/C [25]: 22.5%
viability, T/C [26]: 25.6%
viability, T/C [27]: 32.1%
viability, T/C [28]: 23.2%
viability, T/C [29]: 26.9%
viability, T/C [30]: 8.45%
viability, T/C [31]: 31.1%
viability, T/C [32]: 41.4%
viability, T/C [33]: 19.9%
viability, T/C [34]: 31.9%
viability, T/C [35]: 24.1%
viability, T/C [36]: 19.2%

IC50 (second compound 0.0316 µM): < 31.6 nM
IC50 (second compound 0.1 µM): < 31.6 nM
IC50 (second compound 0.316 µM): < 31.6 nM
IC50 (second compound 1 µM): < 31.6 nM
IC50 (second compound 3.16 µM): < 31.6 nM
IC50 (second compound 10 µM): < 31.6 nM
SMILES: CC1COCCN1c1cc(-c2ccnn2C)c2ccnc(-c3ccn[nH]3)c2n1 (stereo unspecified) + Cc1cnc(CNC(=O)c2c(=O)c3ccc(N4CCCN(C)CC4)nc3n3c2sc2ccccc23)cn1
viability, T/C [1]: 49.5%
viability, T/C [2]: 29.5%
viability, T/C [3]: 31.4%
viability, T/C [4]: 24.8%
viability, T/C [5]: 25.9%
viability, T/C [6]: 21.4%
viability, T/C [7]: 42.5%
viability, T/C [8]: 35.8%
viability, T/C [9]: 29.2%
viability, T/C [10]: 25.7%
viability, T/C [11]: 23.7%
viability, T/C [12]: 20.7%
viability, T/C [13]: 28.4%
viability, T/C [14]: 32.1%
viability, T/C [15]: 26%
viability, T/C [16]: 28.5%
viability, T/C [17]: 37.4%
viability, T/C [18]: 24.8%
viability, T/C [19]: 30.6%
viability, T/C [20]: 29.8%
viability, T/C [21]: 31.9%
viability, T/C [22]: 24%
viability, T/C [23]: 19.6%
viability, T/C [24]: 17.9%
viability, T/C [25]: 28.8%
viability, T/C [26]: 22.4%
viability, T/C [27]: 25.8%
viability, T/C [28]: 24.4%
viability, T/C [29]: 22.5%
viability, T/C [30]: 17%
viability, T/C [31]: 30.2%
viability, T/C [32]: 22.7%
viability, T/C [33]: 23%
viability, T/C [34]: 19.7%
viability, T/C [35]: 24.2%
viability, T/C [36]: 19.3%

IC50 (second compound 0.0316 µM): 107 nM
IC50 (second compound 0.1 µM): < 31.6 nM
IC50 (second compound 0.316 µM): < 31.6 nM
IC50 (second compound 1 µM): < 31.6 nM
IC50 (second compound 3.16 µM): < 31.6 nM
IC50 (second compound 10 µM): < 31.6 nM
SMILES: CC1COCCN1c1cc(C2(O)CC3CCC(C2)O3)c2cnn(-c3ccn[nH]3)c2n1 (stereo unspecified) + Cc1cnc(CNC(=O)c2c(=O)c3ccc(N4CCCN(C)CC4)nc3n3c2sc2ccccc23)cn1
viability, T/C [1]: 76.3%
viability, T/C [2]: 52.5%
viability, T/C [3]: 29.4%
viability, T/C [4]: 27.6%
viability, T/C [5]: 25.2%
viability, T/C [6]: 16.3%
viability, T/C [7]: 38%
viability, T/C [8]: 35.2%
viability, T/C [9]: 33%
viability, T/C [10]: 24.1%
viability, T/C [11]: 20.8%
viability, T/C [12]: 25.4%
viability, T/C [13]: 43%
viability, T/C [14]: 30.8%
viability, T/C [15]: 23.8%
viability, T/C [16]: 19.7%
viability, T/C [17]: 18.9%
viability, T/C [18]: 13.2%
viability, T/C [19]: 29.5%
viability, T/C [20]: 32.9%
viability, T/C [21]: 22.2%
viability, T/C [22]: 28.2%
viability, T/C [23]: 22.3%
viability, T/C [24]: 17.6%
viability, T/C [25]: 42.9%
viability, T/C [26]: 22%
viability, T/C [27]: 18.1%
viability, T/C [28]: 20.7%
viability, T/C [29]: 15.8%
viability, T/C [30]: 5.2%
viability, T/C [31]: 24.5%
viability, T/C [32]: 28.1%
viability, T/C [33]: 29.5%
viability, T/C [34]: 14.7%
viability, T/C [35]: 11.2%
viability, T/C [36]: 0.29%
